The record followed here is patent US10766869B2, “Triazoles for the treatment of demyelinating dieases” (Vertex Pharmaceuticals Incorporated, priority 2015, dated 2020).

This test concerns primary rat mixed cortical cells. Nature of the test: In vitro myelination assay (MBP positive myelin strands, fold myelin pixels above background). It is filed as cell-based. The settings on record: Rattus norvegicus; for fold induction at 1 µM: 1.0 μM compound; for fold induction at 10 µM: 10.0 μM compound. In short, it runs like this:
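Myelination read as total MBP-immunopositive strand pixels per well, imaged at 10× after fixation on day 14 and expressed relative to untreated wells, at 1.0 and 10.0 μM. Cells: dissociated postnatal day 1 rat cortex, cultured two weeks with compound, re-dosed at days 6 and 10.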

[1] abbreviates: relative to baseline of no added compound, read-out: Fold myelin pixels above background, 1.0 μM.
Setting [2] is: relative to baseline of no added compound, read-out: Fold myelin pixels above background, 10.0 μM.
Setting [3] is: relative to baseline of no added compound, read-out: Fold myelin pixels above background.
[4] abbreviates: read-out: Fold myelin pixels above background relative to baseline of no added compound.

Like-named read-outs stand apart in the source and are kept apart here.

Take `COc1cccc(-n2cnc(Nc3cc(Cl)nc(N4CCOCC4)c3)n2)c1` [Compound 145, 2-chloro-N-[1-(3-methoxyphenyl)-1,2,4-triazol-3-yl]-6-morpholino-pyridin-4-amine]: under setting [1], the fold induction at 1 µM was in the range of 10 to 100. In addition, the fold induction at 10 µM under setting [2] lay within 10 to 100.

Regarding `Fc1ccc(-n2cnc(Nc3cc(C4CC4)nc(N4CCCCC4)c3)n2)cc1F` [Compound 327, 2-cyclopropyl-N-[1-(3,4-difluorophenyl)-1,2,4-triazol-3-yl]-6-(1-piperidyl)pyridin-4-amine], under setting [1], the fold induction at 1 µM fell in the range of 100 to 1000. The fold induction at 10 µM under setting [2] lay in the range of 100 to 1000.

As to `Fc1cc(F)cc(-n2cnc(Nc3cc(C4CCOC4)cc(N4CCOCC4)c3)n2)c1` (centres unmarked) [Compound 456, 1-(3,5-difluorophenyl)-N-(3-morpholino-5-tetrahydrofuran-3-yl-phenyl)-1,2,4-triazol-3-amine], under setting [3], the fold induction at 1 µM was 1000 to 10000 and the fold induction at 10 µM was in the range of 100 to 1000.

As to `Cc1cc(Nc2ncn(-c3ccc(F)c(F)c3)n2)cc(OCCn2cccn2)c1` [Compound 698, 1-(3,4-difluorophenyl)-N-[3-methyl-5-(2-pyrazol-1-ylethoxy)phenyl]-1,2,4-triazol-3-amine], under setting [3], the fold induction at 1 µM was in the range of 10 to 100 and the fold induction at 10 µM was 10 to 100.

Take `Cc1cc(Nc2ncn(-c3cc(F)cc(F)c3)n2)cc(C2CN(C3COC3)C(C)CO2)c1` (centres unmarked) [Compound 629, 1-(3,5-difluorophenyl)-N-[3-methyl-5-[5-methyl-4-(oxetan-3-yl)morpholin-2-yl]phenyl]-1,2,4-triazol-3-amine]: under setting [3], the fold induction at 1 µM was in the range of 10 to 100 and the fold induction at 10 µM is not above 1.

For the compound `Fc1cc(F)cc(-n2cnc(Nc3cc(N4CCN(C5COC5)CC4)cc(N4CC(N5CCOCC5)C4)c3)n2)c1` [Compound 701, 1-(3,5-difluorophenyl)-N-[3-(3-morpholinoazetidin-1-yl)-5-[4-(oxetan-3-yl)piperazin-1-yl]phenyl]-1,2,4-triazol-3-amine], under setting [3], the fold induction at 1 µM lay within 10 to 100 and the fold induction at 10 µM is not above 1.

In the case of `Fc1ccc(-n2cnc(Nc3cc(C4CCOCC4)nc(C4CC4)c3)n2)cc1F` [Compound 150, 2-cyclopropyl-N-(1-(3,4-difluorophenyl)-1H-1,2,4-triazol-3-yl)-6-(tetrahydro-2H-pyran-4-yl)pyridin-4-amine], the fold induction at 1 µM under setting [1] was in the range of 1000 to 10000. Further, the fold induction at 10 µM under setting [2] is not above 1.

Regarding `Cc1cc(Nc2ncn(-c3cc(F)cc(F)c3)n2)cc([C@@H]2CN(C3COC3)CCO2)c1` (single isomer, unassigned) [Compound 751], under setting [3], the fold induction at 1 µM lay in the range of 10 to 100 and the fold induction at 10 µM was not above 1.

Take `Fc1cc(F)cc(-n2cnc(Nc3cc(N4CCN(C5COC5)CC4)cc(C(F)(F)F)n3)n2)c1` [Compound 567, N-[1-(3,5-difluorophenyl)-1,2,4-triazol-3-yl]-4-[4-(oxetan-3-yl)piperazin-1-yl]-6-(trifluoromethyl)pyridin-2-amine]: under setting [3], the fold induction at 1 µM is not above 1 and the fold induction at 10 µM was not above 1.

As for `Cc1cc(Nc2ncn(-c3ccc(F)c(F)c3)n2)cc(OC2CCCOC2)c1` (centres unmarked) [Compound 638, 1-(3,4-difluorophenyl)-N-(3-methyl-5-tetrahydropyran-3-yloxy-phenyl)-1,2,4-triazol-3-amine], under setting [3], the fold induction at 1 µM was in the range of 10 to 100 and the fold induction at 10 µM fell in the range of 10 to 100.

With `Cc1cc(Nc2ncn(-c3cc(F)cc(F)c3)n2)cc(N2CCOC3(CCOCC3)CC2)c1` [Compound 906, 1-(3,5-difluorophenyl)-N-[3-(3,7-dioxa-10-azaspiro[5.6]dodecan-10-yl)-5-methyl-phenyl]-1,2,4-triazol-3-amine], under setting [4], the fold induction at 1 µM lay in the range of 10 to 100 and the fold induction at 10 µM was in the range of 1 to 10.

On to `Cc1cc(Nc2ncn(-c3cc(F)cc(F)c3)n2)cc(N2CCOC2=O)c1` [Compound 517, 3-[3-[[1-(3,5-difluorophenyl)-1,2,4-triazol-3-yl]amino]-5-methyl-phenyl]oxazolidin-2-one], for which, under setting [3], the fold induction at 1 µM was 10 to 100 and the fold induction at 10 µM lay in the range of 10 to 100.

As to `Cc1cc(Nc2ncn(-c3cncc(Cl)c3)n2)cc(N2CCN(C3COC3)CC2)c1` [Compound 217, 1-(5-chloro-3-pyridyl)-N-[3-methyl-5-[4-(oxetan-3-yl)piperazin-1-yl]phenyl]-1,2,4-triazol-3-amine], the fold induction at 1 µM under setting [1] was in the range of 10 to 100. Besides, the fold induction at 10 µM under setting [2] was in the range of 10 to 100.

As for `CC(C)(C)c1cc(Nc2ncn(-c3ccccc3)n2)cc(N2CCN(C3COC3)CC2)c1` [Compound 376, N-[3-tert-butyl-5-[4-(oxetan-3-yl)piperazin-1-yl]phenyl]-1-phenyl-1,2,4-triazol-3-amine], the fold induction at 1 µM under setting [1] was 100 to 1000. Under setting [2], the fold induction at 10 µM lay in the range of 1 to 10.

As for `Cc1cc(Nc2ncn(-c3cc(F)cc(F)c3)n2)c(F)c(N2CCN(C(CO)CO)CC2)c1` [Compound 989, 2-[4-[3-[[1-(3,5-difluorophenyl)-1,2,4-triazol-3-yl]amino]-2-fluoro-5-methyl-phenyl]piperazin-1-yl]propane-1,3-diol], under setting [4], the fold induction at 1 µM was not above 1 and the fold induction at 10 µM was not above 1.

For the compound `Cc1cc(Nc2ncn(-c3ccc(C)c(F)c3)n2)cc(N2CCN(C3COC3)CC2)c1` [Compound 836, 1-(3-fluoro-4-methyl-phenyl)-N-[3-methyl-5-[4-(oxetan-3-yl)piperazin-1-yl]phenyl]-1,2,4-triazol-3-amine], under setting [4], the fold induction at 1 µM was 1 to 10 and the fold induction at 10 µM was in the range of 1 to 10.

In the case of `Cc1cc(Nc2ncn(-c3cc(F)cc(F)c3)n2)cc(N2CC(C)C(N3CCOCC3)C2)c1` (centres unmarked) [Compound 871, 1-(3,5-difluorophenyl)-N-[3-methyl-5-(3-methyl-4-morpholino-pyrrolidin-1-yl)phenyl]-1,2,4-triazol-3-amine], under setting [4], the fold induction at 1 µM is 1 to 10 and the fold induction at 10 µM was 1 to 10.

In the case of `Cc1cc(Nc2ncn(-c3cc(F)cc(F)c3)n2)cc(NC2CCN(CCN3CCOCC3)C2)c1` (centres unmarked) [Compound 880, N3-[1-(3,5-difluorophenyl)-1,2,4-triazol-3-yl]-5-methyl-N1-[1-(2-morpholinoethyl)pyrrolidin-3-yl]benzene-1,3-diamine], under setting [4], the fold induction at 1 µM was 1 to 10 and the fold induction at 10 µM was not above 1.

For `COc1ccc(-n2cnc(Nc3cc(F)cc(N4CCN(C5COC5)CC4)c3)n2)cc1F` [Compound 781, 1-(3-fluoro-4-methoxy-phenyl)-N-[3-fluoro-5-[4-(oxetan-3-yl)piperazin-1-yl]phenyl]-1,2,4-triazol-3-amine], under setting [3], the fold induction at 1 µM was 1 to 10 and the fold induction at 10 µM is not above 1.

As to `Cc1cc(Nc2ncn(-c3ccccc3)n2)c(F)c(N2CCN(C3COC3)CC2)c1` [Compound 1085, N-[2-fluoro-5-methyl-3-[4-(oxetan-3-yl)piperazin-1-yl]phenyl]-1-phenyl-1,2,4-triazol-3-amine], under setting [4], the fold induction at 1 µM lay within 10 to 100 and the fold induction at 10 µM was 10 to 100.

Regarding `Cc1cc(Nc2ncn(-c3ccccc3)n2)cc(C2CCCN(C3COC3)C2)c1` (centres unmarked) [Compound 248, N-[3-methyl-5-[1-(oxetan-3-yl)-3-piperidyl]phenyl]-1-phenyl-1,2,4-triazol-3-amine], the fold induction at 1 µM under setting [1] was 100 to 1000. Besides, under setting [2], the fold induction at 10 µM lay in the range of 1 to 10.

Turning to `Cc1cc(Nc2ncn(-c3cncc(C)n3)n2)cc(N2CCN(C3COC3)CC2)c1` [Compound 271, N-[3-methyl-5-[4-(oxetan-3-yl)piperazin-1-yl]phenyl]-1-(6-methylpyrazin-2-yl)-1,2,4-triazol-3-amine], the fold induction at 1 µM under setting [1] is not above 1. For the same compound, under setting [2], the fold induction at 10 µM is not above 1.

Turning to `CC(F)(F)c1cc(Nc2ncn(-c3ccc(F)c(F)c3)n2)nc(N2CCN(C3COC3)CC2)c1` [Compound 579, 4-(1,1-difluoroethyl)-N-[1-(3,4-difluorophenyl)-1,2,4-triazol-3-yl]-6-[4-(oxetan-3-yl)piperazin-1-yl]pyridin-2-amine], under setting [3], the fold induction at 1 µM lay in the range of 1 to 10 and the fold induction at 10 µM fell in the range of 1 to 10.

For the compound `FC(F)(F)c1cc(Nc2ncn(-c3ccccc3)n2)nc(N2CCN(C3COC3)CC2)c1` [Compound 547, 6-[4-(oxetan-3-yl)piperazin-1-yl]-N-(1-phenyl-1,2,4-triazol-3-yl)-4-(trifluoromethyl)pyridin-2-amine], under setting [3], the fold induction at 1 µM was in the range of 100 to 1000 and the fold induction at 10 µM lay in the range of 10 to 100.

Turning to `Cc1cc(Nc2ncn(-c3cc(F)cc(F)c3)n2)cc(N2CC3(CCO3)C2)c1` [Compound 508, 1-(3,5-difluorophenyl)-N-[3-methyl-5-(3-oxa-6-azaspiro[3.3]heptan-6-yl)phenyl]-1,2,4-triazol-3-amine], under setting [3], the fold induction at 1 µM lay within 100 to 1000 and the fold induction at 10 µM was 10 to 100.

As to `Cc1cc(Nc2ncn(-c3cc(F)cc(F)c3)n2)cc(N2CC(N3CCS(=O)(=O)CC3)C2)c1` [Compound 661, 1-(3,5-difluorophenyl)-N-[3-[3-(1,1-dioxo-1,4-thiazinan-4-yl)azetidin-1-yl]-5-methyl-phenyl]-1,2,4-triazol-3-amine], under setting [3], the fold induction at 1 µM lay within 10 to 100 and the fold induction at 10 µM was in the range of 1 to 10.

For `COc1cccc(-n2cnc(Nc3cc(Cl)nc(N4CCCCC4)c3)n2)c1` [Compound 106, 2-chloro-N-[1-(3-methoxyphenyl)-1,2,4-triazol-3-yl]-6-(1-piperidyl)pyridin-4-amine], under setting [1], the fold induction at 1 µM was not above 1. The fold induction at 10 µM under setting [2] is 1 to 10.

As to `Clc1cc(Nc2ncn(-c3ccccc3)n2)cc(N2CCOCC2)c1` [Compound 335, N-(3-chloro-5-morpholino-phenyl)-1-phenyl-1,2,4-triazol-3-amine], the fold induction at 1 µM under setting [1] fell in the range of 1000 to 10000. The fold induction at 10 µM under setting [2] fell in the range of 10 to 100.
